Literature values in patent US6436889B1, “Detergent compositions” (Unilever Home & Personal Care USA division of Conopco, Inc., priority 1999, dated 2002).
Read-outs that look alike come from different tables or passages of the source.

[1] = at 20° C., other common materials

Row | Water Solubility (grams of solid required to form a saturated solution in 100 grams of water at 20° C., highly water-soluble materials) [g/100 g] | SMILES | Water Solubility [1] [g/100 g]
1 |  | O=BO[O-].[Na+] [Sodium perborate anhydrous] | 3.7
2 |  | O=P(O)(O)OP(=O)(O)OP(=O)(O)O [Sodium tripolyphosphate anhydrous] | 15
3 | >100 | NC(N)=O [Urea] | 
